Experimental findings from US10966949B2, “Dietary supplementation to achieve oxy-redox homeostasis and epigenetic stability” (PARTHENOGEN SAGL, priority 2015, dated 2021) are described below.

In one assay the test system is Agouti gene Avy. The assay is described as follows: Agouti-yellow coat colour of offspring of supplemented VY dams (DNA methylation marking). The assay is classed as in vivo, mouse. Particulars: dams' diet fortified during gestation, human-equivalent dose, n=10; standard diet 66%. An excerpt: Mice embryos carrying the transgenic Agouti gene Avy will develop during gestation an Agouti-yellow color hair instead of the normal brown color proportionally to the lack of cytosine methylation at the relevant gene promoter. Mothers with a good DNA methylation function during early embryogenesis will generate offspring exerting less of the yellow color, thus the proportion of yellow color in the offspring can be used as a measure of efficiency of DNA methylation marking. Newborn mice are classified as Y0 to Y5 according to the amount of yellow phenotype, from Y0 for those without yellow hair up to Y5 in those fully colored in yellow. Dams of the inbred agouti mouse strain VY underwent diversified feeding during their gestation: their standard diet (n=10), or; their standard diet fortified with folic acid in amounts equivalent to a human dose of 400 μg daily (n=10), or; their standard diet fortified with the substances in amounts equivalent to a human dose of 1 tablet per day of the formulation of EXAMPLE 1 (n=10). The offspring was classified Y0 to Y5 according to the amount of yellow colour. In the standard diet group the rate of offspring abundant Agouti yellow color (Y3 to Y5) was 66%, which decreased to 45% in the offspring from folic acid supplementation and to 31% in the offspring supplemented by the composition according to the invention.

Assay [1] relates to patients with type 2 diabetes mellitus. The assay is described as follows: Adjuvant treatment to metformin in newly diagnosed type 2 diabetes mellitus. The class given is in vivo, human. An excerpt:
Thirty male patients newly diagnosed as affected by type 2 diabetes mellitus and starting a treatment with metformin, 1-2 gr daily, where randomly assigned to a 3-month adjuvant treatment with the composition formulated according to EXAMPLE 1, 1 tablet per day, or no treatment.

The subject of assay [2] is plasma total antioxidant capacity (TAC). The assay is described as follows: Plasma total antioxidant capacity (TAC) in healthy young males, cross-over. The assay is classed as in vivo, human. How it is done:
Ten young male subjects aged 18-25, following a healthy diet and virtually free from diseases assumed the composition formulated according to EXAMPLE 1, 1 tablet per day, for 1 week or 1000 mg daily of vitamin C by the oral route for 1 week according to a cross-over design with a 1 month wash-out interval between the treatments. The plasma total antioxidant capacity (TAC) was measured by means of a colorimetric assay kit before and after each of the treatment periods in all subjects. The average TAC values expressed as μmol trolox equivalents increased from 572±33 to 646±20 (increase=13%) following one week supplementation with the powerful direct antioxidant vitamin C whereas it remained stable (from 570±31 to 578±26, increase=1%) following one week supplementation with the composition according to the invention.

Assay [3] shares this test system. The assay is described as follows: Plasma total antioxidant capacity (TAC) in regular smokers, cross-over. The class given is in vivo, human. Particulars: ten male smokers. On the procedure: Ten male subjects regularly smoking 15 cigarettes per day or more assumed the composition formulated according to EXAMPLE 1, 1 tablet per day during 1 week or 1000 mg daily of vitamin C by the oral route for 1 week according to a cross-over design with a 1 month wash-out interval between the treatments. The plasma total antioxidant capacity (TAC) was measured by means of a colorimetric assay kit before and after each of the treatment periods in all subjects. The average TAC values expressed as μmol trolox equivalents increased from 472±36 to 522±32 (increase=11%) following one week supplementation with the powerful direct antioxidant vitamin C and from 468±31 to 565±36 (increase=21%) following one week supplementation with the composition according to the invention. Thus, the TAC increase provided by the aforementioned composition was of the same magnitude, if not higher, than that induced by full doses of a potent direct antioxidant.

The mark [4] stands for this setting: all patients on metformin 1-2 gr daily, 3 months.

Each structure is given as a SMILES string.

Consider `Nc1nc2ncc(CNc3ccc(C(=O)N[C@@H](CCC(=O)O)C(=O)O)cc3)nc2c(=O)[nH]1` [folic acid], for which the “rate of offspring with abundant Agouti yellow color (Y3 to Y5)” value with Agouti gene Avy turned out to be 45%.
On to `CN(C)C(=N)N=C(N)N` [metformin], for which, in assay [1] (setting [4]), the “plasma homocysteine at the end of treatment” value came out at 14.4 ± 2.1 µmol/L and the “serum HbA1C percentage at end” value is on record as 9.2%. For the same molecule, the “serum HbA1C percentage at baseline” value in assay [1] (all patients on metformin 1-2 gr daily, baseline) is on record as 10.4%. Besides, the “plasma homocysteine at baseline” value in assay [1] (male type 2 diabetes patients starting metformin 1-2 gr daily, baseline) stood at 12.04 ± 1.6 µmol/L.
Turning to `O=C1O[C@H]([C@@H](O)CO)C(O)=C1O` [vitamin C], the “average plasma TAC after treatment” value in assay [2] (ten healthy young males aged 18-25, after one week supplementation) worked out at 646±20 μmol trolox equivalents; in assay [3] (after one week supplementation) it was 522±32 μmol trolox equivalents. The “average plasma TAC before treatment” value was 572±33 μmol trolox equivalents in assay [2] (ten healthy young males aged 18-25, before one week supplementation) and 472±36 μmol trolox equivalents in assay [3] (15 cigarettes per day or more, before one week supplementation). Besides, the TAC increase in assay [2] (ten healthy young males, one week supplementation) is on record as 13%; in assay [3] (one week supplementation) it was 11%.
